Laboratory results: PMC4128814, “A High Throughput Screen Identifies Potent and Selective Inhibitors to Human Epithelial 15-Lipoxygenase-2” (PLoS ONE, 2014)

Columns and labels:
ovine COX-1 = molecular target: T1, ovine COX-1 (Ovis aries, UniProt P05979); experiment: Cyclooxygenase assay (oxygen electrode), COX-1; type: biochemical; details: estimated from one inhibitor point at 20 µM; 100 µM AA
T1 construct: purchased Cayman Chemical
T1 sequence (P05979 25-600): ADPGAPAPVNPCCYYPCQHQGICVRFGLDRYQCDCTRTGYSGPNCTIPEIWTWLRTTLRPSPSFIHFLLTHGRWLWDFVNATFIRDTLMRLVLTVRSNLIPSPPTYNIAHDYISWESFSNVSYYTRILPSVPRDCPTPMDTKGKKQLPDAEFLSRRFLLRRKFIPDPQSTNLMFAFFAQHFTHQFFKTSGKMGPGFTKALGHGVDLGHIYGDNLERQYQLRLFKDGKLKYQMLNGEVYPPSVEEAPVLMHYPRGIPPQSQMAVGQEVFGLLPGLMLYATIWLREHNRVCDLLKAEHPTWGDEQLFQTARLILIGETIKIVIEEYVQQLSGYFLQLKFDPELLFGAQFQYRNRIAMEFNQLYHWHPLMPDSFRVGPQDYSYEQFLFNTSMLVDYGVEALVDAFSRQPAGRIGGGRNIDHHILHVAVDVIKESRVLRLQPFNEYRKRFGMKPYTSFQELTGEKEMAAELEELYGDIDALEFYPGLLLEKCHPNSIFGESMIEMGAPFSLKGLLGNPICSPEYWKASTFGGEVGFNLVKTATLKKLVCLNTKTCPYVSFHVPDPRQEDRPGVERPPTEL
Protocol: Cyclooxygenase activity assay was performed as previously described. Approximately 3 µg of either ovine COX-1 (COX-1) or human recombinant COX-2 (COX-2) (Cayman Chemical) were added to buffer containing 0.1 M Tris-HCl buffer (pH 8.0), 5 mM EDTA, 2 mM phenol and 1 µM hematin at 37°C. The selected inhibitors were added to the reaction cell, followed by an incubation of 5 minutes with either of the COX enzymes. The reaction was then initiated by adding 100 µM AA in the reaction cell, as indicated in enzymatic protocol (Cayman Chemicals). Data were collected using a Hansatech DW1 oxygen electrode and the consumption of oxygen was recorded. Indomethacin and the solvent (DMSO), were used as positive and negative controls, respectively, and the percent inhibition of the enzyme was calculated by comparing the rates of the samples to the controls.

15-LOX-1 = molecular target: T2, 15-LOX-1 (Homo sapiens, UniProt P16050); experiment: Lipoxygenase UV-Vis assay, 15-LOX-1; type: biochemical; details: estimated from one inhibitor point at 20 µM; 10 µM AA
T2 construct: His6 (N); made in house
T2 sequence (P16050 1-662): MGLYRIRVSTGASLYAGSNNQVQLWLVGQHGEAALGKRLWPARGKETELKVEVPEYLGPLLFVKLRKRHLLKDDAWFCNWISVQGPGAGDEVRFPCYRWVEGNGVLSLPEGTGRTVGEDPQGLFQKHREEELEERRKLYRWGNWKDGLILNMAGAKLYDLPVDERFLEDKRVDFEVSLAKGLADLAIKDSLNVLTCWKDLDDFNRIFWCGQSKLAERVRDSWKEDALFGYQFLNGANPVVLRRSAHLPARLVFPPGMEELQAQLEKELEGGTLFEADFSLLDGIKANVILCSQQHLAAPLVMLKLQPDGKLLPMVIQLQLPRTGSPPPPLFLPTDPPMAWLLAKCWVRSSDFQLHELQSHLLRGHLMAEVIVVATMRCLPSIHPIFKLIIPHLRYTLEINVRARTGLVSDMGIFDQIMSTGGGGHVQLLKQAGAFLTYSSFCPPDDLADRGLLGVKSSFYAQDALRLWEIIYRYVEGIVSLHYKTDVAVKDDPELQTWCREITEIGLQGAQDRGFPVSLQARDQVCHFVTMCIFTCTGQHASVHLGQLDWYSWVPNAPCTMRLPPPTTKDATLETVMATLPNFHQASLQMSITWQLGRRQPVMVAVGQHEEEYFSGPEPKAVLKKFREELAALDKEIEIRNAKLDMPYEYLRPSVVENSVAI
Source text: Different lipoxygenases, such as 15-LOX-1, 15-LOX-2, and 12-LOX were expressed as N-terminal His6-tagged proteins and were purified via immobilized metal affinity chromatography (IMAC) using an Ni-NTA resin for 15-LOX-1 [12], and 15-LOX-2 [17], and a Ni-IDA resin for 12-LOX [18]. […] Human leukocyte 5-lipoxygenase (5-LOX) was expressed as a non-tagged protein and used as a crude ammonium sulfate protein fraction, as published previously, [20].
The inhibitor compounds were screened initially using one concentration point at 25 µM on a Perkin-Elmer Lambda 40 UV/Vis spectrophotometer. […] The reactions were initiated by adding 200 nM 15-LOX-2, 30 nM 12-LOX, 40 nM 15-LOX-1, or approximately 100–300 nM (5–10 µL) of 5-LOX crude extract to a cuvette with 2 mL reaction buffer, constantly stirred using a magnetic stir bar at room temperature (22°C). Reaction buffers used for various LOX isozymes were as follows: 25 mM HEPES (pH 7.3), 0.3 mM CaCl2, 0.1 mM EDTA, 0.2 mM ATP, 0.01% Triton X-100, 10 µM AA for the crude, ammonium sulfate precipitated 5-LOX; and 25 mM HEPES (pH 7.5), 0.01% Triton X-100, 10 µM AA for 15-LOX-2, 15-LOX-1, and 12-LOX. […] The data were then plotted against inhibitor concentration, followed by a hyperbolic saturation curve fit (assuming total enzyme concentration [E]≪IC50). […] All inhibitors were stored at −20°C in DMSO. […]

| IC50 (ovine COX-1) [µM] | IC50 (15-LOX-1) [µM] | Compound |
| --- | --- | --- |
| > 50 | > 100 | Clc1ccc(-c2nnc(C3CCCCC3)o2)cc1 [MLS000545091] |
| > 100 | > 50 | Cc1ccc(CSc2ncn(-c3ccccc3)n2)cc1 [MLS000536924] |
